From patent US9056875B2, “Substituted pyrazolo[3′,4′:4,5]thieno[2,3-C]pyridazin-3-amine analogs as positive allosteric modulators of the muscarinic acetylcholine receptor M4” (Vanderbilt University, priority 2012, dated 2015)
Each block holds one compound with its values, some of them ahead of it.

Legend:
mAChR rM4 = molecular target: T1, mAChR rM4 (Rattus norvegicus, UniProt P08485); assay: mAChR rM4 cell-based functional assay (calcium mobilization, potentiation of EC20 acetylcholine response)
T1 construct: expressed in transfected cells
T1 sequence (P08485 1-478): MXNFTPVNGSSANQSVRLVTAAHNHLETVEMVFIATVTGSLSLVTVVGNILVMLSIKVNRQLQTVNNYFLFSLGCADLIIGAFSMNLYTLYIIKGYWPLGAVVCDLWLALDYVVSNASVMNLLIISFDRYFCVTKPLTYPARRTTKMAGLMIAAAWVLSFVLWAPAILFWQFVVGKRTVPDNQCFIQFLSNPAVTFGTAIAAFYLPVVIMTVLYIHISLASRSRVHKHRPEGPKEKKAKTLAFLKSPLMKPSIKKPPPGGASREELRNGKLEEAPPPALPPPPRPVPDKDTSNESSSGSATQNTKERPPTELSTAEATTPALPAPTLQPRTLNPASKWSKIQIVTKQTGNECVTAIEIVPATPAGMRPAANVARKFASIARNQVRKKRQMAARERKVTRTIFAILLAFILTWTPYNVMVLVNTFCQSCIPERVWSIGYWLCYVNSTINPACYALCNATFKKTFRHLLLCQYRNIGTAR
Text: Chinese hamster ovary (CHO-K1) cells stably expressing rat (r)M1 were purchased from the American Type Culture Collection and cultured according to their indicated protocol. CHO cells stably expressing human (h)M2, hM3, and hM5 were described previously (Levey A I, et al., (1991) J Neurosci 11:3218-3226.); hM1 and hM4 cDNAs were purchased from Missouri S&T cDNA Resource; rM4 cDNA was provided by T. I. Bonner (National Institutes of Health, Bethesda, Md.). rM2 and rM3 were cloned from a rat brain cDNA library and sequence verified. hM1, rM2, rM3, hM4, and rM4 cDNAs were used to stably transfect CHO-K1 cells purchased from the American Type Culture Collection using Lipofectamine® 2000. To make stable rM2, hM2, rM3, hM4, and rM4 cell lines for use in calcium mobilization assays, these cells also were stably transfected with a chimeric G-protein (Gqi5) (provided by B. R. Conklin, University of California, San Francisco) using Lipofectamine® 2000. rM1, hM1, rM3, hM3, rM5, and hM5 cells were grown in Ham's F-12 medium containing 10% heat-inactivated fetal bovine serum (FBS), 20 mM HEPES, and 50 μg/mL G418 sulfate. rM2-Gqi5, hM2-Gqi5, and hM4-Gqi5 cells were grown in the same medium also containing 500 μg/mL hygromycin B. Stable rM4-Gqi5 cells were grown in DMEM containing 10% heat-inactivated FBS, 20 mM HEPES, 400 μg/mL G418 sulfate, and 500 μg/mL Hygromycin B.
For high throughput measurement of agonist-evoked increases in intracellular calcium, CHO-K1 cells stably expressing the target muscarinic receptor were plated in growth medium lacking G418 and hygromycin at 15,000 cells/20 μL/well in Greiner 384-well black-walled, tissue culture (TC)-treated, clear-bottom plates (VWR). Cells were incubated overnight at 37° C. and 5% CO2. The next day, cells were washed using an ELX 405 (BioTek) with four washes (80 μL) of assay buffer then aspirated to 20 μL. Next, 20 μL of 16 μM Fluo-4/acetoxymethyl ester (Invitrogen, Carlsbad, Calif.) prepared as a 2.3 mM stock in DMSO and mixed in a 1:1 ratio with 10% (w/v) Pluronic F-127 and diluted in assay buffer was added to the wells and the cell plates were incubated for […] at 37° C. and 5% CO2. Dye was removed by washing with the ELX 405 (four 80 μL washes of assay buffer) then aspirated to 20 μL. Compound master plates were formatted in an 11 point CRC format (1:3 dilutions) in 100% DMSO with a starting concentration of 10 mM using the BRAVO liquid handler (Agilent). Test compound CRCs were then transferred to daughter plates (240 nL) using the Echo acoustic plate reformatter (Labcyte, Sunnyvale, Calif.) and then diluted into assay buffer (40 μL) to a 2× stock using a Thermo Fisher Combi (Thermo Fisher Scientific, Waltham, Mass.).
Calcium flux was measured using the Functional Drug Screening System (FDSS) 6000 (Hamamatsu Corporation, Tokyo, Japan) as an increase in the fluorescent static ratio. Compounds were applied to cells (20 μL, 2×) using the automated system of the FDSS 6000 at 4 s into the 300 s protocol and the data were collected at 1 Hz. At 144 s into the 300 s protocol, 10 μL of an EC20 concentration of the muscarinic receptor agonist acetylcholine was added (5×), followed by the addition of 12 μL an EC80 concentration of acetylcholine at the 230 s time point (5×). Agonist activity was analyzed as a concentration-dependent increase in calcium mobilization upon compound addition. Positive allosteric modulator activity was analyzed as a concentration-dependent increase in the EC20 acetylcholine response. Antagonist activity was analyzed as a concentration-dependent decrease in the EC80 acetylcholine response. Concentration-response curves were generated using a four-parameter logistical equation in XLfit™ curve fitting software (IDBS, Bridgewater, N.J.) for Excel (Microsoft, Redmond, Wash.) or Prism (GraphPad Software, Inc., San Diego, Calif.). […]

[1] = patients treated with AChE inhibitor; cited from earlier work
[2] = cited from earlier work
[3] = Alzheimer's disease patients; cited from earlier work

Emax at 30 µM (mAChR rM4; %ACh maximum at 30 μM): 61%
EC50 (mAChR rM4; rM4-transfected CHO-K1 cells, positive allosteric modulation of EC20 ACh response, read-out: EC50): 2500 nM
Compound: Cc1nnc2sc3c(NCC4CCN(S(C)(=O)=O)CC4)nn(C)c3c2c1C [Compound 24, 1,7,8-trimethyl-N-((1-(methylsulfonyl)piperidin-4-yl)methyl)-1H-pyrazolo[3′,4′:4,5]thieno[2,3-c]pyridazin-3-amine]

Compound: Nc1c2c(nc3ccccc13)CCCC2 [tacrine]
hepatotoxicity with elevated liver transaminases observed in patients [1]: about 30 % of patients

Compound: CCCCCCOc1nsnc1C1=CCCN(C)C1 [xanomeline]
catalepsy ([2]; animal models): without causing catalepsy
activity in animal models ([2]; compared with known antipsychotic drugs): active in animal models with similar profiles to known antipsychotic drugs
psychotic behavioral symptoms such as delusions, suspiciousness, vocal outbursts, and hallucinations [3]: reduce psychotic behavioral symptoms
treatment induced side effects [3]: gastrointestinal effects
